Test results from PMC9705834, “Mitochondrial Targeting Domain Homologs Induce Necrotic Cell Death Via Mitochondrial and Endoplasmic Reticulum Disruption” (Journal of Microbiology and Biotechnology, 2021).

Columns and labels:
[1] = previous study; cited from earlier work
HeLa cells = assay: MTS assay of cell viability after peptide treatment; type: cell-based; details: HeLa cells at 90% confluency, peptide in phenol red-free DMEM for 1 h, absorbance 450 nm
Experimental: HeLa cells were purchased from the Korean Cell Line Bank (Korea) and cultured in Dulbecco’s modified Eagle’s medium (DMEM) containing 10% fetal bovine serum and 1× penicillin-streptomycin (100 IU/ml and 100 μg/ml, Gibco-Thermo Fisher, USA) at 37°C in a humidified 5% CO2 atmosphere.
HeLa cells were cultured in 96-well plates to 90% confluency and treated with peptides mixed in phenol red-free DMEM for 1 h. After incubation, MTS solution (20 μl, Promega, USA) was added and the absorbance of each well was measured at 450 nm.
Fig. 1 Mitochondrial targeting domain (MTD) homologs induce necrotic cell death as in MTD. A. (Left panel) There are several mitochondrial targeting domain (MTD) homologs in human genes. They were searched by protein basic local alignment search tool (BLAST) on National Center for Biotechnology Information (NCBI) and sorted according to percent identity with MTD. Each amino acid was colored according to the ClustalX color scheme (hydrophobic, blue; positive charge, red; negative charge, magenta; polar, green; glycine, orange; proline, yellow; aromatic, cyan; cysteine, pink). (Right panel) The cytotoxicity of mitochondrial targeting domain (MTD) homologs is determined by its amino acid sequence. MTD homologs were grouped according to their cytotoxicity, then sorted according to percent identity with MTD. Each amino acid was colored according to the ClustalX color scheme (hydrophobic, blue; positive charge, red; negative charge, magenta; polar, green; glycine, orange; proline, yellow; aromatic, cyan; cysteine, pink). B. Cell viabilities were determined by MTS assay 1 h after treating HeLa cells with MTD homologs fused with octa-arginine (R8). HeLa cells treated with R8:M-LIPRIN, R8:MST3GAL3, R8:M-TRRAD, and R8:M-SDAD1(left panel). HeLa cells treated with eM-GAL3, R8:MGAL3, and R8:M-ST13 (right panel). C, HeLa cells treated with R8:M-SDAD1 (5 μM), R8:M-TRRAD (20 μM), and R8:M-ST3GAL3 (40 μM), then observed for 10 min using differential interference contrast microscopy. D, HeLa cells were treated with R8:M-SDAD1 (10 μM), R8:M-TRRAD (20 μM), and R8:M-ST3GAL3 (40 μM), with and without DIDS (200 μM); after 1 h, cell viability was determined by MTS assay. […]

[2] = cited from earlier work
Excerpt: Within few minutes after the treatment with the MTD peptide, intracellular calcium concentration increases, and extracellular calcium penetrates through the mitochondrial permeability transition (mPT) pore. With the formation of blebs, the calcium concentration decreases and mitochondrial reactive oxidative species (ROS) begin to increase. MTDs also induce mitochondrial swelling, fragmentation, and endopla ... || Bnip1 MTD-like motif (B1MLM), derived from another BH3-only protein, Bnip1, also induces cell death in the same manner. Bnip1 interacts with […] Bcl-2 family proteins and the adenoviral antiapoptotic protein, E1B 19 kDa. The BH3 domain of Bnip1 is closely involved in apoptosis and mitochondrial fission carried out by Drp1 [14]. B1MLM has a similar arrangement of leucine residues as that of MTD. […] Similar to MTD, B1MLM induces a sharp rise in ca ... || MTD and B1MLM peptides induce necrotic cell death when associated with R8. R8 is a well-known cell penetrating motif. […] To evaluate the cytotoxicity of MTD homologs, we synthesized these peptides and fused R8 at the N-terminus.

Sequence	cytotoxicity / cell viability as the concentration increased (Fig. 1B) (HeLa cells)	further results
RRRRRRRRKLLNLISKLF [R8:MTD]		disruption of ER and mitochondria [1]: induced the disruption of ER and mitochondria
RRRRRRRRVKKLNEISKLGISG [R8:M-GAL3, MTD homolog found in GAL3, fused with R8 at the N-terminus]	hardly altered cell viability	
RRRRRRRRNPKVMNLISKLSAK [R8:M-ST13, MTD homolog found in ST13, fused with R8 at the N-terminus]	hardly altered cell viability	
KLNFRQKLLNLISKLFCSGT [eMTD, extended MTD: MTD with its flanking region]		necrotic cell death ([2]; MTD with its flanking region): strongly induces necrotic cell death
KLLNLISKLF [MTD, mitochondrial targeting domain of Noxa, as a peptide without R8]		cell killing activity of MTD peptide without R8 ([2]; previous study): did not show any cell killing activity
LLQYNHRVKKLNEISKLGISGDIDLTSASYTMI [eM-GAL3, M-GAL3 with a flanking region similar to that of eMTD, without R8]	hardly altered cell viability	
RRRRRRRREAKLLELTSKLRKA [R8:M-LIPRIN, MTD homolog found in LIPRIN, fused with R8 at the N-terminus]	hardly altered cell viability	
